Data reported in patent US7884133B2, “Pharmaceutical compositions containing (+) cannabidioil and derivatives thereof and some such novel derivatives” (priority 2003, dated 2011).
Entries after “also recorded” stand apart in the source; their conditions may differ.

Key:
female Sabra mice [1] = experiment: Intestinal motility (defecation, number of fecal pellets); format: in vivo; details: 20 mg/kg i.p.
Method: (§1) Defecation was measured as the number of fecal pellets voided in the open field. In some experiments (as indicated below), fecal pellets and body temperature were assessed for a prolonged period (3 hr).

female Sabra mice [2] = experiment: Hypothermia (rectal temperature); format: in vivo; details: 20 mg/kg i.p., * = P<0.05 vs vehicle
Method: (§2) Mice were injected with antagonist 90 minutes before testing and/or with agonist 60 minutes before testing in a series of four assays which reflect central cannabinoid activity [Martin (1991) id. ibid.; modified by Fride, E. and R. Mechoulam (1993) id. ibid.]. This “tetrad” consists of, consecutively, ambulation and rearing in an open field (8 minutes), immobility on an elevated ring of 5 cm diameter (4 minutes), rectal temperature (Yellow
as §1

[3] = test system: CB1−/− receptor knockout mice; experiment: Central effects in CB1−/− receptor knockout mice; format: in vivo; details: not shown
Method: (§3) Female Sabra mice (2-3 months of age) were purchased from Harlan, Israel. Breeding pairs of CB1−/− receptor knockout mice were provided by Prof. A. Zimmer, University Clinic Bonn, Germany.
as §2

female Sabra mice [4] = experiment: Tetrad: rearing (vertical movements) in an open field; format: in vivo; details: 20 mg/kg i.p.
Method: as §2

female Sabra mice [5] = experiment: Intestinal motility after antagonist pre-treatment (SR141716A, SR144528, capsazepine); format: in vivo; details: for reversal of inhibition of defecation by CB1 antagonist SR141716A / reversal of inhibition of defecation by CB2 antagonist SR144528: agonist 20 mg/kg; for reversal of inhibition of defecation by CB1 antagonist SR141716A: SR141716A 1 mg/kg i.p. 30 minutes before agonist; for reversal of inhibition of defecation by CB2 antagonist SR144528: SR144528 1 or 3 mg/kg i.p. 30 minutes before agonist
Method: (SR1, 1 mg/kg). SR1 was injected (i.p.) 30 minutes before the agonist. 60 minutes after (+)CBD-DMH the number of fecal pellets was recorded.
(SR2, 1 mg/kg). SR2 was injected (i.p.) 30 minutes before the agonist. 60 minutes after (+)-CBD-DMH the number of fecal pellets was recorded.
as §2, §1

female Sabra mice [6] = experiment: Tetrad overall (central cannabinoid activity); format: in vivo; details: 20 mg/kg i.p., tested 60 minutes later
Method: Central activity of the compounds of the invention was assessed in the “tetrad”, which is a series of assays commonly used to measure central cannabimimmetic effects [Martin, B. R. et al. (1991) Pharmacol. Biochem. Behav. 40(3): 471-8; Fride, E. and C. Sanudo-Pena (2002) id. ibid.]. Three parameters for peripheral activity were used. Since gastrointestinal transit is regulated locally in the periphery rather than by centrally located CB1 receptors [Izzo (2000) id. ibid.; Landi (2002) id. ibid.], intestinal motility was one of the parameters used, and peripheral cannabinoid effects was measured as rates of defecation (see Example 29).
as §2

CB2 receptor = CB2 receptor (Homo sapiens, UniProt P34972); details: cited from earlier work
CB2 receptor, sequence (P34972 whole entry): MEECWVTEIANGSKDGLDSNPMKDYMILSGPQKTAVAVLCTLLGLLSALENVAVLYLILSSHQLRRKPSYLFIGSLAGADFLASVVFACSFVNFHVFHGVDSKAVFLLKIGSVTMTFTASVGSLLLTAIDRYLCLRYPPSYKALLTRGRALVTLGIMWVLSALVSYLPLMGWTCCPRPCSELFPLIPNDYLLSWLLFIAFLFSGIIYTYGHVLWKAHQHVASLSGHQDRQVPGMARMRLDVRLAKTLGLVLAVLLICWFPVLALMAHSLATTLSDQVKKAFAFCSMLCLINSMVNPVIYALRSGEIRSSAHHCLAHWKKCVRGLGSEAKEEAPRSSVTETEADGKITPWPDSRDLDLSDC

female Sabra mice [7] = experiment: Tetrad: catalepsy (immobility) on an elevated ring; format: in vivo; details: 20 mg/kg i.p., elevated ring 4 min; normalized; * = P<0.05 vs vehicle
Method: as §2

[8] = test system: arachidonic acid-induced ear inflammation in the mouse; experiment: Arachidonic acid induced inflammation of the external ear; format: in vivo; details: for potency compared to indomethacin in ear inflammation, in words: (+)-CBD-DMH 40 or 10 mg/kg vs indomethacin 20 mg/kg
Method: Ear inflammation was measured by assessing ear tissue swelling after topical application of arachidonic acid, as described previously [Hanus (1999) id. ibid.]. Briefly, at various times after i.p. drug injections, arachidonic acid was applied to the inner surface of one ear (4.5 mg dissolved in […] ethanol). The opposite ear served as control (5 ethanol). Ear thickness was determined (in 0.01-mm units) by using a dial thickness gauge (Mitutoyo, Japan) every 15 minutes for 90 minutes, starting immediately after arachidonic acid application.

female Sabra mice [9] = experiment: Hot plate analgesia (centrally mediated pain); format: in vivo
Method: (§4) Pain perception on a hot plate, is considered to be mediated by a central mechanism whereas the second, late phase of the response to an implantar injection of formalin reflects inflammatory pain mechanisms [Tjolsen, A. and Hole (1997) id. ibid.].
(§5) Thus, central pain perception was assessed by the analgesic response on a hot plate (55° C., Columbus Instruments, OH, USA). Peripheral pain was measured by the response to implantar injection of formalin (4%) 45 minutes after injection of the drug.

female Sabra mice [10] = experiment: Tetrad: ambulation (horizontal movements) in an open field; format: in vivo; details: 20 mg/kg i.p., open field 8 min, 30 or 60 min after injection; normalized; * = P<0.05 vs vehicle
Method: as §2

CB1 receptor = CB1 receptor (Rattus norvegicus, UniProt P20272); details: cited from earlier work
CB1 receptor, sequence (P20272 whole entry): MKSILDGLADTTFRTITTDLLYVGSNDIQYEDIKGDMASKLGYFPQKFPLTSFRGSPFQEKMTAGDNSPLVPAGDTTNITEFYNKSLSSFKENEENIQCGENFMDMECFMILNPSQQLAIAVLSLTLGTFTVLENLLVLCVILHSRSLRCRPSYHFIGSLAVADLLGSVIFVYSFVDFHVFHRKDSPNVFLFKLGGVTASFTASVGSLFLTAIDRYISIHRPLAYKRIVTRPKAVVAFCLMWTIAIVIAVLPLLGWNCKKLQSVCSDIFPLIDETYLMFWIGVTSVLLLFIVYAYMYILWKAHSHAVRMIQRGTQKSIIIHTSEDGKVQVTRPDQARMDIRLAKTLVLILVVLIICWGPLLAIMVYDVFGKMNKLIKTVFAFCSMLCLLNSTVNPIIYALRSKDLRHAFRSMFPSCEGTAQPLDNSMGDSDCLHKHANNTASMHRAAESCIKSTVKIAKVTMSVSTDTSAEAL

[11] = test system: formalin-induced peripheral pain in mice; experiment: Formalin-induced peripheral pain (second phase); format: in vivo; details: formalin 4% in hind footpad, 45 minutes after drug; paw licks over 60 minutes
Method: Formalin (4%) was injected in the left hind footpad and the number of licks of the injected foot were recorded for each 5 minutes interval for the 60 minutes starting immediately after formalin application.
as §4, §5

[12] = test system: CB1−/− receptor knockout mice; experiment: Intestinal motility in CB1−/− receptor knockout mice; format: in vivo; details: 20 mg/kg i.p., defecation rate recorded for 3 hours
Method: Female CB1−/− knockout mice were injected i.p. with (+)-7-OH-CBD-DMH, (+)-CBD-DMH or Δ^9-THC (20 mg/kg). Intestinal motility (defecation rate) was recorded for a period of 3 hours.
as §3, §1

C=C(C)C1CCC(C)=CC1c1c(O)cc(C(C)(C)CCCCCC)cc1O (single isomer, unassigned; (+)) [+CBD−DMH, (+)-CBD-DMH]
inhibition of defecation / intestinal motility, in words (female Sabra mice [1]; 60 minutes after injection): completely blocked
Inhibition of Intesitinal Motility (% MPE) (female Sabra mice [1]; defecation in open field 8 min, normalized, * = P<0.05 vs vehicle): 100* % MPE
Hypothermia (Δ-Body Temp.) (female Sabra mice [2]): −0.3 °C
central effects in CB1−/− receptor knockout mice [3]: None of the drugs assessed ((+)-CBD-DMH, (+)-7-OH-CBD-DMH and Δ^9-THC had any effect
effect on rearing in an open-field, in words (female Sabra mice [4]): modest effect
Vertical Movements (% MPE) (female Sabra mice [4]; open field 8 min, normalized, * = P<0.05 vs vehicle): 61 % MPE
reversal of inhibition of defecation by CB1 antagonist SR141716A (female Sabra mice [5]; listed as (+) CBD-DMH): almost fully reversed
reversal of inhibition of defecation by CB1 antagonist SR141716A (female Sabra mice [5]; listed as (+)-CBD-DMH): effectively antagonized; also recorded: partial reversal
reversal of inhibition of defecation by CB2 antagonist SR144528 (female Sabra mice [5]; listed as (+) CBD-DMH): not at all
reversal of inhibition of defecation by CB2 antagonist SR144528 (female Sabra mice [5]; listed as (+)-CBD-DMH): not at all; also recorded: did not prevent; also recorded: no reversal
effect of VR1 antagonist capsazepine on inhibition of defecation (female Sabra mice [5]; data not shown): did not affect
central effects (tetrad), in words (female Sabra mice [6]): absence of central effects or small effects; also recorded: Lack of central effects
Kd (CB2 receptor; previously reported, Bisogno et al. 2001, read-out: affinity for the CB2 receptor (Kd)): 211 nM
Ki (CB2 receptor; second value of CB1/CB2 cell, data from Bisogno et al., 2001, read-out: CB2 Receptor Binding (Ki)): 210 nM
Catalepsy (Freezing of Movement) (% MPE) (female Sabra mice [7]): 16 % MPE
potency compared to indomethacin in ear inflammation, in words ([8]; listed as (+) CBD-DMH): as effective as indomethacin
potency compared to indomethacin in ear inflammation, in words ([8]; listed as (+)-CBD-DMH): equal potency as indomethacin; also recorded: as potent as indomethacin
potency compared to indomethacin in ear inflammation, in words ([8]; listed as (+)CBD-DMH): Equal potencies
inhibition of arachidonic acid-induced ear inflammation, in words ([8]; i.p., 10 to 40 mg/kg, ear thickness every 15 minutes for 90 minutes): almost completely inhibited
centrally mediated pain on hot plate, in words (female Sabra mice [9]; 20 mg/kg): not active; also recorded: not affected
Analgesia (Hot Plate) (% MPE) (female Sabra mice [9]; 20 mg/kg i.p., hot plate 55° C., max 45 sec, normalized, * = P<0.05 vs vehicle): 10 % MPE
Horizontal Movements (% MPE) (female Sabra mice [10]): 82 % MPE
Ki (CB1 receptor; first value of CB1/CB2 cell, data from Bisogno et al., 2001, read-out: CB1 Receptor Binding (Ki)): 17 nM
Kd (CB1 receptor; previously reported, Bisogno et al. 2001, read-out: affinity for the CB1 receptor (Kd)): 17.4 nM
second (inflammatory) phase of formalin-induced pain, in words [11]: completely inhibited the second phase; also recorded: almost completely inhibited; also recorded: almost completely prevented the second phase of pain
effect on intestinal motility in CB1−/− knockout mice [12]: absence of inhibition of intestinal motility; also recorded: None of the drugs assessed ((+)-CBD-DMH, (+)-7-OH-CBD-DMH and Δ^9-THC had any effect; also recorded: no effects
